The values that follow come from patent US12071425B2 (Genentech, Inc., priority 2018, dated 2024).

pIC50: −log10 of the molar value. Counter-ions that a name gives are not always drawn.

This assay deals with kinase domain of IRE1 alpha (His-tagged kinase dead construct KR, AA G547-L977, D688N) (Homo sapiens (Human), UniProt O75460, D688N). Put plainly: IRE1α TR-FRET competition binding assay. Conditions: competition with Kinase Tracer 236, 0.1 μM; one hour at room temperature. As for the experimental part: To determine the affinity of compound binding to the kinase domain of IRE1 alpha, a Time Resolved Fluorescence Resonance Energy Transfer (TR-FRET) competition assay was used. A His-tagged IRE1 alpha kinase dead construct containing the kinase and RNase domains (KR, AA G547-L977, D688N) was expressed in Sf9 insect cells. The purified protein (final concentration 0.006 μM micromolar) was pre-incubated with anti-His Europium labeled antibody (Life Technologies PV5596, final concentration 0.002 μM micromolar) for one hour at 4° C. in 1X TR-FRET Assay Buffer (50 mM HEPES, pH 7.5.10 mM MgCl2, 0.083 mM Brij 35, 1 mM DTT, and 0.1% bovine gamma globulin) prior to addition to test compounds. A fluorescent labeled probe based on an ATP competitive inhibitor (Kinase Tracer 236, Life Technologies PV5592) is added to a final concentration of 0.1 μM (micromolar). Reactions were carried out for one hour at room temperature in a final volume of 20 μL (microliter) in 384 well white ProxiPlates (Perkin Elmer 6008289). Binding of the tracer to the IRE1 protein alpha was detected in an Envision instrument (PerkinElmer) equipped with a TRF laser option and a LANCE/Delfia Dual/Bias D400/D630 mirror (Ex 347 nm, 1st Em 665 nm, 2nd Em 615 nm).
Sequence of kinase domain of IRE1 alpha (His-tagged kinase dead construct KR, AA G547-L977, D688N) (O75460 547-977 D688N): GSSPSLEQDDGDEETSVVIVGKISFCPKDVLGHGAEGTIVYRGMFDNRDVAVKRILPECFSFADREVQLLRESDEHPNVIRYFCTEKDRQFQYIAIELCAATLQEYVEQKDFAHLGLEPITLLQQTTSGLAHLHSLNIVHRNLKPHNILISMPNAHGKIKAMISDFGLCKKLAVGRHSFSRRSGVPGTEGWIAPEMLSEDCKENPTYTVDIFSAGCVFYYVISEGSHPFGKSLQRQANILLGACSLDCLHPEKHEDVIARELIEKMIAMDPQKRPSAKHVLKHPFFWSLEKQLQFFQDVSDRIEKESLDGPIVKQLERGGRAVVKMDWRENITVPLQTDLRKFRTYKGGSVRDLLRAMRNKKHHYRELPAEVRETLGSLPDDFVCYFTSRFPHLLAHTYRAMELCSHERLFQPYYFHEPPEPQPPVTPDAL
Exemplary compounds in Table A1 were tested in the IRE1α binding assays.
For orientation: Time-resolved FRET reads energy transfer from a long-lived donor to a nearby acceptor.
For orientation: pIC50 means the negative decadic logarithm of the IC50, by convention in mol/L. Higher therefore signals a low IC50. `CC(F)C1CNCC(Nc2nccc(-c3cccnc3Oc3cc(F)c(NS(=O)(=O)Cc4ccccc4)c(F)c3F)n2)C1` (single isomer, unassigned) [Compound 344, 1-Phenyl-N-(2,3,6-trifluoro-4-((3-(2-((5-(1-fluoroethyl)piperidin-3-yl)amino)pyrimidin-4-yl)pyridin-2-yl)oxy)phenyl)methanesulfonamide hydrochloride] showed a pIC50 of 7.72.

On to `O=C(Nc1ccc(Oc2ncccc2-c2ccnc(N[C@H]3CCCNC3)n2)c(F)c1F)C1CC1` [Compound 147, (S)—N-(2,3-Difluoro-4-(3-(2-(piperidin-3-ylamino)pyrimidin-4-yl)pyridin-2-yloxy)phenyl)cyclopropanecarboxamide hydrochloride], for which the pIC50 is 6.68.

`CCC(F)(F)CS(=O)(=O)Nc1c(F)cc(Oc2ncccc2-c2ccnc(N[C@H]3CCCNC3)n2)c(F)c1F` [Compound 194, (S)-2,2-difluoro-N-(2,3,6-trifluoro-4-((3-(2-(piperidin-3-ylamino)pyrimidin-4-yl)pyridin-2-yl)oxy)phenyl)butane-1-sulfonamide] showed a pIC50 of 8.40.

Take `O=S(=O)(Cc1ccccc1)Nc1ccc(Oc2ncccc2-c2ccnc(NC34CNCC3C4)n2)c(F)c1F` (single isomer, unassigned) [Compound 186, N-(4-((3-(2-(3-Azabicyclo[3.1.0]hexan-5-ylamino)pyrimidin-4-yl)-2-pyridyl)oxy)-2,3-difluoro-phenyl)-1-phenyl-methanesulfonamide]: the pIC50 is 7.70.

In turn, `Cc1cc(NS(=O)(=O)Cc2ccccc2)c(F)c(F)c1Oc1ncccc1-c1ccnc(N[C@@H]2CNC[C@H](C)C2)n1` [Compound 177, N-(2,3-difluoro-5-methyl-4-((3-(2-(((3S,5R)-5-methyl-3-piperidyl)amino)pyrimidin-4-yl)-2-pyridyl)oxy)phenyl)-1-phenyl-methanesulfonamide] had a pIC50 of 8.31.

With `N#Cc1cc(F)ccc1CS(=O)(=O)Nc1c(F)cc(Oc2ncccc2-c2ccnc(N[C@@H]3CNC[C@@H](F)C3)n2)c(F)c1F` [Compound 357, 1-(2-Cyano-4-fluoro-phenyl)-N-[2,3,6-trifluoro-4-[[3-[2-[[(3S,5S)-5-fluoro-3-piperidyl]amino]pyrimidin-4-yl]-2-pyridyl]oxy]phenyl]methanesulfonamide], the pIC50 is 9.00.

Turning to `O=C1CC[C@H](Nc2nccc(-c3cccnc3Oc3ccc(NS(=O)(=O)Cc4ccccc4)c(F)c3F)n2)CN1` [Compound 181, (S)-N-(2,3-difluoro-4-((3-(2-((6-oxopiperidin-3-yl)amino)pyrimidin-4-yl)pyridin-2-yl)oxy)phenyl)-1-phenylmethanesulfonamide], the pIC50 was 7.44.

`COc1ccccc1CS(=O)(=O)Nc1ccc(Oc2ncccc2-c2ccnc(N[C@H]3CCCNC3)n2)c(F)c1F` [Compound 380, (S)—N-(2,3-Difluoro-4-((3-(2-(piperidin-3-ylamino)pyrimidin-4-yl)pyridin-2-yl)oxy)phenyl)-1-(2-methoxyphenyl)methanesulfonamide] gave a negative logarithm of the IC50 (pIC50) of 9.05.

The compound `Cc1ccc(CS(=O)(=O)Nc2cc(C)c(Oc3ncccc3-c3ccnc(N[C@@H]4CNC[C@@](C)(F)C4)n3)c(F)c2F)cc1` [Compound 297, N-(2,3-Difluoro-4-((3-(2-(((3S,5S)-5-fluoro-5-methylpiperidin-3-yl)amino)pyrimidin-4-yl)pyridin-2-yl)oxy)-5-methylphenyl)-1-(p-tolyl)methanesulfonamide] had a pIC50 of 9.55.

The compound `N#Cc1ccccc1CS(=O)(=O)Nc1c(F)cc(Oc2ncccc2-c2ccnc(N[C@@H]3CNC[C@@H](F)C3)n2)c(F)c1F` [Compound 358] showed a pIC50 of 9.52.

For `Cc1cc(NS(=O)(=O)Cc2ccccc2)cc(F)c1Oc1ncccc1-c1ccnc(N[C@H]2CC[C@H](N)CC2)n1` [Compound 119, N-(4-((3-(2-(((1r,4r)-4-aminocyclohexyl)amino)pyrimidin-4-yl)pyridin-2-yl)oxy)-3-fluoro-5-methylphenyl)-1-phenylmethanesulfonamide hydrochloride], the pIC50 is 7.89.

As to `Cn1cnc(S(=O)(=O)Nc2ccc(Oc3ncccc3-c3ccnc(N[C@H]4CCCNC4)n3)c(F)c2F)c1` [Compound 221, (S)-N-(2,3-difluoro-4-((3-(2-(piperidin-3-ylamino)pyrimidin-4-yl)pyridin-2-yl)oxy)phenyl)-1-methyl-1H-imidazole-4-sulfonamide], the pIC50 was 6.42.

Turning to `COCC1CNCC(Nc2nccc(-c3cccnc3Oc3cc(F)c(NS(=O)(=O)Cc4ccccc4)c(F)c3F)n2)C1` (single isomer, unassigned) [Compound 331, 1-Phenyl-N-(2,3,6-trifluoro-4-((3-(2-((5-(methoxymethyl)piperidin-3-yl)amino)pyrimidin-4-yl)pyridin-2-yl)oxy)phenyl)methanesulfonamide], the negative-log IC50 (pIC50) is 9.09.

In turn, `O=S(=O)(Nc1ccc(Oc2ncccc2-c2ccnc(N[C@H]3CCCNC3)n2)c(F)c1F)C1c2ccccc2-c2ccccc21` [Compound 381, (S)—N-(2,3-Difluoro-4-((3-(2-(piperidin-3-ylamino)pyrimidin-4-yl)pyridin-2-yl)oxy)phenyl)-9H-fluorene-9-sulfonamide] showed a pIC50 of 9.00.

`NCCNc1nccc(-c2cccnc2Oc2ccc(NS(=O)(=O)Cc3ccccc3)c(F)c2F)n1` [Compound 171, N-(4-((3-(2-((2-aminoethyl)amino)pyrimidin-4-yl)pyridin-2-yl)oxy)-2,3-difluorophenyl)-1-phenylmethanesulfonamide] gave a negative logarithm of the IC50 (pIC50) of 6.74. This pIC50 lies 2.26 log units lower than the previous one.

The compound `O=S(=O)(Cc1ccccc1)Nc1c(F)cc(Oc2ncccc2-c2ccnc(N[C@H]3CCCNC3)n2)c(F)c1F` [Compound 153, (S)-1-Phenyl-N-(2,3,6-trifluoro-4-((3-(2-(piperidin-3-ylamino)pyrimidin-4-yl)pyridin-2-yl)oxy)phenyl)methanesulfonamide hydrochloride] showed a pIC50 of 8.42.

`Cc1c(Oc2ncccc2-c2ccnc(N[C@@H]3CNC[C@@H](F)C3)n2)cc(F)c(NS(=O)(=O)Cc2ccccc2)c1F` [Compound 179, N-(2,6-difluoro-4-((3-(2-(((3S,5S)-5-fluoro-3-piperidyl)amino)pyrimidin-4-yl)-2-pyridyl)oxy)-3-methyl-phenyl)-1-phenyl-methanesulfonamide] gave a pIC50 of 8.37.

With `Cc1cc(NS(=O)(=O)Cc2ccccc2)c(F)c(F)c1Oc1ncccc1-c1ccnc(N[C@H]2CCCNC2)n1` [Compound 155, (S)-N-(2,3-difluoro-5-methyl-4-((3-(2-(piperidin-3-ylamino)pyrimidin-4-yl)pyridin-2-yl)oxy)phenyl)-1-phenylmethanesulfonamide], the pIC50 is 8.35.

`CN(C)CCNc1nccc(-c2cccnc2Oc2ccc(NS(=O)(=O)Cc3ccccc3)c(F)c2F)n1` [Compound 184, N-(4-((3-(2-((2-(dimethylamino)ethyl)amino)pyrimidin-4-yl)pyridin-2-yl)oxy)-2,3-difluorophenyl)-1-phenylmethanesulfonamide] showed a pIC50 of 7.24.

In turn, `O=S(=O)(Cc1ccccc1)Nc1c(F)cc(Oc2ncccc2-c2ccnc(CC3CCCNC3)n2)c(F)c1F` (single isomer, unassigned) [Compound 198, 1-Phenyl-N-(2,3,6-trifluoro-4-((3-(2-(3-piperidylmethyl)pyrimidin-4-yl)-2-pyridyl)oxy)phenyl)methanesulfonamide] gave a negative-log IC50 (pIC50) of 5.89.

For `Cc1cc(NS(=O)(=O)C2CCCCC2)cc(F)c1Oc1ncccc1-c1ccnc(N[C@H]2CCCNC2)n1` [Compound 117, (S)-N-(3-fluoro-5-methyl-4-((3-(2-(piperidin-3-ylamino)pyrimidin-4-yl)pyridin-2-yl)oxy)phenyl)cyclohexanesulfonamide hydrochloride], the pIC50 is 7.68.

`COCCN(C)[C@H]1CC[C@H](Nc2nccc(-c3cccnc3Oc3cc(F)c(NS(=O)(=O)C4CCCCC4)c(F)c3F)n2)CC1` [Compound 350, N-(2,3,6-Trifluoro-4-((3-(2-(((1r,4r)-4-((2-methoxyethyl)(methyl)amino)cyclohexyl)amino)pyrimidin-4-yl)pyridin-2-yl)oxy)phenyl)cyclohexanesulfonamide] gave a pIC50 of 9.38.

In turn, `COc1ccc(S(=O)(=O)Nc2ccc(Oc3ncccc3-c3ccnc(N[C@H]4CCCNC4)n3)c(F)c2F)cc1` [Compound 211, (S)-N-(2,3-difluoro-4-((3-(2-(piperidin-3-ylamino)pyrimidin-4-yl)pyridin-2-yl)oxy)phenyl)-4-methoxybenzenesulfonamide] showed a pIC50 of 7.48.

Turning to `N#Cc1ccc(CS(=O)(=O)Nc2c(F)cc(Oc3ncccc3-c3ccnc(N[C@@H]4CNC[C@H](CF)C4)n3)c(F)c2F)cc1` [Compound 321, 1-(4-Cyanophenyl)-N-(2,3,6-trifluoro-4-((3-(2-(((3S,5R)-5-(fluoromethyl)piperidin-3-yl)amino)pyrimidin-4-yl)pyridin-2-yl)oxy)phenyl)methanesulfonamide], the pIC50 was 9.19.

In turn, `O=S(=O)(CCC1CCCCC1)Nc1ccc(Oc2ncccc2-c2ccnc(N[C@H]3CCCNC3)n2)c(F)c1F` [Compound 215, (S)-2-cyclohexyl-N-(2,3-difluoro-4-((3-(2-(piperidin-3-ylamino)pyrimidin-4-yl)pyridin-2-yl)oxy)phenyl)ethane-1-sulfonamide] showed a pIC50 of 7.96.
